These are literature values, as cited in patent US20060189533A1, “Stable pharmaceutical dosage forms of teriparatide” (Nastech Pharmaceutical Company Inc., priority 2004, published 2006).

Like-named read-outs stand apart in the source and are kept apart here. Where no end group is shown, it is not given here.

The conditions of series [1]: up to 500 μg per day for 7 days; up to 1,000 μg per day for 3 months.
Another series deals with ovariectomized rat. The settings on record: ovariectomized rat model.
For series [2] the following is noted: anesthetized rats.

As for `CC[C@H](C)[C@H](NC(=O)[C@H](CCC(=O)O)NC(=O)[C@H](CO)NC(=O)[C@@H](NC(=O)[C@@H](N)CO)C(C)C)C(=O)N[C@@H](CCC(N)=O)C(=O)N[C@@H](CC(C)C)C(=O)N[C@@H](CCSC)C(=O)N[C@@H](Cc1cnc[nH]1)C(=O)N[C@@H](CC(N)=O)C(=O)N[C@@H](CC(C)C)C(=O)NCC(=O)N[C@@H](CCCCN)C(=O)N[C@@H](Cc1cnc[nH]1)C(=O)N[C@@H](CC(C)C)C(=O)N[C@@H](CC(N)=O)C(=O)N[C@@H](CO)C(=O)N[C@@H](CCSC)C(=O)N[C@@H](CCC(=O)O)C(=O)N[C@@H](CCCN=C(N)N)C(=O)N[C@H](C(=O)N[C@@H](CCC(=O)O)C(=O)N[C@@H](Cc1c[nH]c2ccccc12)C(=O)N[C@@H](CC(C)C)C(=O)N[C@@H](CCCN=C(N)N)C(=O)N[C@@H](CCCCN)C(=O)N[C@@H](CCCCN)C(=O)N[C@@H](CC(C)C)C(=O)N[C@@H](CCC(N)=O)C(=O)N[C@@H](CC(=O)O)C(=O)N[C@H](C(=O)N[C@@H](Cc1cnc[nH]1)C(=O)N[C@@H](CC(N)=O)C(=O)N[C@@H](Cc1ccccc1)C(=O)O)C(C)C)C(C)C` [Teriparatide], the “safety of the intranasal route” value in series [1] was “no safety concerns were noted”.

With “hPTH1-31NH2: linear PTH analogue with only AC-stimulating activity, SEQ ID NO: 3 (SVSEIQLMHNLGKHLNSMERVEWLRKKLQDV-NH2; listed as Homo sapiens)”, the “activity in the restoration of bone loss” value in the series on ovariectomized rat is recorded as “fully active”.

With “human growth hormone: protein whose nasal bioavailability is reported to be modestly increased by N-acetyl-L-cysteine”, the values for the nasal bioavailability in series [2] (before increase by N-acetyl-L-cysteine) and in series [2] (with N-acetyl-L-cysteine) were 7.5% and 12.2%, respectively.
